Test results taken from patent publication US8263754B2, “Amphiphiles for protein solubilization and stabilization” (Wisconsin Alumni Research Foundation, priority 2008, dated 2012).
Entries after “also recorded” stand apart in the source; their conditions may differ. Where two headings read alike, the source gives them in different places.

How the values were obtained:
[1] = Critical micelle concentration (CMC) by dye solubilization (Orange OT or DPH); type: physicochemical; details: for critical micelle concentration (CMC): aqueous solubilization of Orange OT; for CMC / CMC (%): determined by DPH (diphenylhexatriene) or Orange OT
Excerpt: Aqueous solubilization of Orange OT was used to determine critical micelle concentrations (CMC). […] Facile self-association of these amphiphiles under these conditions may be hindered by the hydrophilicity and/or steric bulk of the triglucoside and dimaltoside headgroups.
The Critical Micelle Concentrations (CMCs) of compounds of the invention can be determined by standard techniques known to those of skill in the art. For example, CMCs of the carbohydrate-based amphiphiles described herein can be determined by monitoring uptake of a dye (e.g., Orange OT or 1,6-diphenylhexatriene) with increasing detergent concentration, monitored by UV-visible or fluorescence spectroscopy.

[2] = system: LHI-RC superassembly in Rhodobacter capsulatus membranes; details: solubilized protein, optical spectroscopy
Excerpt: These complexes, normally embedded in the bacterial membrane, are highly pigmented and several outcomes from an assay are possible, including no degradation, partial degradation or complete degradation upon solubilization, or no solubilization. Thus, graded comparative evaluations could be obtained for a set of candidates such as the amphiphiles described herein.
In the engineered strain of R. capsulatus employed, the photosynthetic unit was comprised of a very labile LHI complex and a more resilient RC complex. An ideal amphiphile for this system will extract the intact LHI-RC superassembly from a bacterial membrane preparation and maintain the natural interactions among the components. Amphiphiles with a more disruptive effect will dissociate and denature LHI, leaving only intact RC, and even harsher amphiphiles will cause RC degradation. Each of these various outcomes can be assessed unambiguously via optical spectroscopy (FIG. 2 inset).
Measurements. The starting material for the screening protocols and stability measurements included specialized photosynthetic membranes from an engineered strain of Rhodobacter (R.) capsulatus, U43[pUHTM86Bgl]
To begin the solubilization and purification process, frozen aliquots of R. capsulatus membranes were thawed, homogenized, and equilibrated to 32° C. for 30 minutes. […] For subsequent experiments, the amphiphiles were evaluated at 10-fold CMC during the solubilization step.
The membrane samples were allowed to incubate with the amphiphile for 30 minutes at 32° C. The solubilized material was then separated from the membrane debris in an ultracentrifuge at 315,000×g at 4° C. for 30 minutes. […] After a UV-Vis-nearIR absorption spectrum was recorded, the resuspended pellet was discarded. […] The tubes were then incubated and inverted for 1 hour at 4° C.
Once binding was complete, samples were loaded onto resin-retaining spin columns (e.g., emptied His Spin Trap™ columns; GE Healthcare). The columns were then inserted into a 2 mL microcentrifuge tube to retain the filtered solution during centrifugation. […] Finally, protein was eluted into a fresh microcentrifuge tube with three 0.2 mL elution buffer aliquots (this buffer was identical to binding buffer with the addition of 1 M imidazole).
The R. capsulatus LHI-RC complexes extracted and purified by this procedure contain large numbers of cofactors that have absorptions at distinct wavelengths, and each component of the LHI-RC superassembly has a different inherent stability outside the lipid bilayer. The solubilization protocol outlined above therefore provides a multifaceted assessment of the efficacy of conventional detergents and novel amphiphiles. UV-Vis absorption spectroscopy data obtained at various stages of the protocol allow one to determine which protein components have degraded at these stages. […] The disruption potential was measured as the yield of superassembly extracted during solubilization (or, alternatively and more precisely, as the absence of superassembly in the pellet from the spin following solubilization).
The stabilizing propensity was determined from the spectra of the purified protein. An amphiphile was judged to be mild and stabilizing if it allowed the purification of fully intact LHI-RC superassembly (dominant absorption band at 875 nm). […] An amphiphile was judged to be of intermediate strength if it allowed for the purification of fully intact RC with damaged or missing LHI (dominant absorption at 800 nm with a shoulder at 875 nm; damaged LHI still bound to RC absorbs at 760 nm).
First, solubilization (illustrated in “STEP 1” of FIG. 12) denotes the ability of a surfactant to penetrate, integrate and disrupt a lipid bilayer.

[3] = molecular target: T1, bacteriorhodopsin (bR) (Halobacterium salinarum, UniProt P02945); details: cited from earlier work
T1 sequence (P02945 14-262): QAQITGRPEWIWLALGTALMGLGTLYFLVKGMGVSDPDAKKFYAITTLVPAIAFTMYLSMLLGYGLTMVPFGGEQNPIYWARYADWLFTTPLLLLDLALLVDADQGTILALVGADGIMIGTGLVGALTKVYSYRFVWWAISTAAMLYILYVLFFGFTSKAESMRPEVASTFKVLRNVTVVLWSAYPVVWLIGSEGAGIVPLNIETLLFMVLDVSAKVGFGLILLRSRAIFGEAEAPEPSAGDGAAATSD

[4] = molecular target: bovine rhodopsin (Bos taurus, UniProt P02699); details: cited from earlier work
[5] = system: T2, LHI-RC superassembly; test: Stability over time of solubilized, purified LHI-RC superassembly (A875/A680 ratio); set-up: species or system Rhodobacter capsulatus; details: room temperature, 875 nm/680 nm absorption ratio over two to three weeks
T2 construct: Starting with protein complexes in their native lipid bilayer; made in house; host or cells: Rhodobacter capsulatus U43[pUHTM86Bgl], intracytoplasmic membranes (strain lacks LHII)
Protocol: FIG. 3. To monitor the ability of micelles of DDM, TPA-2, and MPA-2(C12) to stabilize membrane protein complexes, spectra of the protein purified by each detergent were recorded as a function of time. The initial spectrum (t=0) was acquired directly after elution of the protein from affinity chromatography. The integrity of the LHI-RC superassembly solubilized by these relatively mild detergents was monitored quantitatively from a scatter-corrected absorbance ratio (A875/A680). The ratio of a sample of completely folded and functional supperassembly is >14.5, and this ratio declines dramatically as the multi-subunit complex disassembles and denatures.
Stability was monitored by following the 875 nm/680 nm absorption ratio over a two to three weeks (absorption at 680 nm arises from oxidation of bacteriochlorophyll that has dissociated from LHI protein).
Similar criteria and protocols were used to judge the ability of amphiphiles to maintain solubilized and purified superassembly for extended periods. In this case, UV Vis-nearIR spectra were recorded at regular intervals. The degradation of the material could be monitored with the A875/A680 absorbance ratio, which decreased with time and sample integrity as the dominant 875 nm absorption of intact LHI disappeared and a 680 nm band appeared, indicating the presence of unbound, oxidized cofactors.

CCCCC(CCCC)(CC(=O)NCCC[N+](C)(C)[O-])c1ccccc1 [TPA0, reference compound]
critical micelle concentration (CMC) [1]: 5.5 mM
CMC [1]: 4.4 mM
CMC (%) [1]: 0.16%
extraction of LHI-RC superassembly from R. capsulatus membranes [2]: too harsh to be useful for the preparation of intact superassembly
solubilization of bacteriorhodopsin (bR) [3]: effectively solubilized
stability of resulting protein solution (bR) [3]: stable for several weeks
solubilization of bovine rhodopsin [4]: effectively solubilized
stability of resulting protein solution (bovine rhodopsin) [4]: stable for several weeks

CCCCC(CCCC)(CC(=O)NC(CO[C@H]1OC(CO)[C@H](O)C(O)C1O)CO[C@H]1OC(CO)[C@H](O)C(O)C1O)C1CCCCC1 (stereo partly shown) [TPA21]
critical micelle concentration (CMC) [1]: 1.8 mM
CMC [1]: 1.8 mM
CMC (%) [1]: 0.12%
extraction of LHI-RC superassembly from R. capsulatus membranes ([2]; listed as TPA-2-S): as good as or better than TPA-2 at extracting membrane proteins; also recorded: at least as effective as TPA-2, if not superior; also recorded: equal to or superior to TPA-2 at extracting membrane proteins
stability of solubilized LHI-RC superassembly [5]: more stabilizing than those of TPA-2
